According to US20150368220A1, “PHARMACEUTICAL COMPOSITION FOR TREATING OR PREVENTING STRESS URINARY INCONTINENCE OR MIXED URINARY INCONTINENCE, AND METHOD FOR SCREENING COMPOUND COMPRISED IN SAID PHARMACEUTICAL COMPOSITION” (Astellas Pharma Inc., priority 2012, published 2015):

What was measured:
[1] = tested on: isolated bladder; test: Isolated bladder contraction (Example 6); settings: isolated bladder of SD female rat, cumulative addition
From the text: (§1) (1) The bladder and uterus were isolated from an SD female rat having a body weight of 100 g to 500 g. For the isolated bladder, the parts below the parietal region and the triangular portion were resected to make only the body portion into a ring state, and further, one side of the tissue in the ring state was cut to a band-shaped tissue. The bladder in the band shape was isolated parallel to the median axis of the bladder to prepare strip-shaped specimens having a length of about 10 mm and a width of about 3 mm. The specimens were suspended in a 10 mL tissue bus filled with a Krebs-Henseleit solution (pH 7.4) at a resting tension of 0.5 g and the isometric contraction was recorded. For the isolated uterus, the edge portion of the uterus was cut and incised vertically, whereby a strip-shaped specimen having a width of about 6 mm was then prepared. The specimens were suspended in a 10 mL tissue bus filled with a Krebs—Henseleit solution (pH 7.4) at a resting tension of 0.5 g and the isometric contraction was recorded. […] For the bladder specimen, after the resting tension was stabilized, a 60 mM KCl solution or a 10 μM carbachol solution was added thereto to cause contraction. The specimens were washed and stabilized, and then the compounds were cumulatively administered.

[2] = tested on: SD female rat; test: Effect on rat blood pressure (Example 6); format: in vivo; settings: intravenous, at a dose for increasing the urethral pressure, FIGS. 21 and 22
From the text: An SD female rat was anesthetized with urethane and allowed to undergo laparotomy, and then a catheter was mounted in the bladder dome for urine leakage in the bladder. Further, a catheter was mounted in the femoral vein for the administration of a compound and a catheter was mounted in the carotid artery for the measurement of blood pressure described in Example 6 as described later. A microchip transducer catheter (Milar Instruments) was inserted toward the bladder from the external urethral meatus for the measurement of the urethral pressure, and fixed such that the transducer portion was positioned around the portion at which the urethral pressure was maximized (10.0 mm to 15.0 mm from the external urethral meatus). The catheter mounted in the carotid artery was attached to a pressure transducer and the blood pressure was measured.
(2) In the experiment for measuring the urethral pressure in Example 4, the blood pressure was measured simultaneously. After the urethral pressure and the blood pressure were stabilized, the compound was administered and a change in the blood pressure was measured.

[3] = tested on: isolated urethra; test: Urethra contracting action using isolated urethra (Example 3); settings: isolated urethra of SD female rat, cumulative 10^-5 M to 10^-12 M, FIGS. 6 and 7
Procedure: The urethra was isolated from an SD female rat having a body weight of 100 g to 500 g. The isolated urethra was incised vertically and then made into strip-shaped specimens having a width of about 3 mm. The specimens were suspended in a 10 mL tissue bus filled with a Krebs—Henseleit solution (pH 7.4) in the circular muscle direction. The Krebs—Henseleit solution was aerated at 95% O2 and 5% CO2, and warmed at 37° C. The resting tension was set to 0.5 g and the isometric contraction was recorded. After the resting tension was stabilized, a 10 μM phenylephrine solution was added thereto to cause contraction.

[4] = tested on: SD female rat; test: Effect on urethral pressure, microchip method (Example 4); format: in vivo; settings: intravenous, anesthetized SD female rat, FIGS. 8 and 9
From the text: An SD female rat was anesthetized with urethane and allowed to undergo laparotomy, and then a catheter was mounted in the bladder dome for urine leakage in the bladder. Further, a catheter was mounted in the femoral vein for the administration of a compound and a catheter was mounted in the carotid artery for the measurement of blood pressure described in Example 6 as described later. […] The catheter mounted in the carotid artery was attached to a pressure transducer and the blood pressure was measured.

[5] = tested on: SD female rat; test: Effect on urethral pressure, perfusion method (Example 4); format: in vivo
Procedure: An SD female rat was anesthetized with urethane and allowed to undergo laparotomy, the bladder dome was then incised, and a catheter having a barb at the tip was inserted toward the urethra from the bladder, and ligated and fixed such that the tip of the catheter was positioned around the proximal urethra. Physiological saline was injected at a predetermined flow rate into the urethra through the catheter and the urethral pressure was measured with a pressure transducer. After the urethral pressure was stabilized, compounds dissolved in physiological saline, or physiological saline containing 5% N,N-dimethylacetamide(DMA) and 0.5% Cremophor were intravenously administered at a dose of 1 μg/kg, 10 μg/kg, 100 μg/kg, or 1000 μg/kg and a change in the urethral pressure was measured.

[6] = tested on: isolated uterus; test: Isolated uterus contraction (Example 6); settings: isolated uterus of SD female rat, cumulative 10^-5 M to 10^-11 M
From the text: as §1

[7] = biological target: T1, human MT1 receptor (Homo sapiens, UniProt P48039); test: Effect of luzindole on ramelteon-induced intracellular Ca2+ increase in human MT1 receptor expressing cells (Example 5); format: cell-based; settings: for intracellular Ca^2+ concentration increasing action: action by 10^-6 M ramelteon = 100%
T1 construct: expressed in transfected cells; vector pCDNA3.1/Zeo; co-transfected with a Gq/i chimeric G protein expression vector
Procedure: (§2) The respective stably expressing cells were dispensed into 96 wells in a poly-D-lysine-coated plate (Falcon) the day before the experiment to give 40,000 cells/well, and cultured in a DMEM (Invitrogen Inc.) medium containing 10% FBS at 37° C. and 5% CO2 overnight. The medium was replaced with a loading buffer (a washing solution containing 4 μM Fluo-4AM (Dojindo Co.) (Hank's balanced salt solution (HBSS), 20 mM HEPES-NaOH, 2.5 mM probenecid)) and cultured at 37° C. and 5% CO2 for 1 hour. Thereafter, the cells were washed with a plate washer (EL×405, BIO-TEK Instrument Inc.) having a washing solution set therein, and set in an intracellular Ca concentration measuring system (FLIPR (registered trademark), Molecular Device Inc.). Luzindole was preliminarily dissolved in a washing solution, diluted to a final concentration of 10^−5 M to 10^−7 M, and left to stand at room temperature for 5 minutes. Ramelteon was preliminarily dissolved in a washing solution and diluted to a final concentration of 10^−5 M to 10^−11 M, the resultant was set in an FLIPR (registered trademark) device together with the cells after leaving to stand for 5 minutes after the addition of luzindole, the cells were added to the device, and a change in the intracellular Ca^2+ concentration at that time was measured.

[8] = biological target: T2, human MT2 receptor (Homo sapiens, UniProt P49286); test: Effect of luzindole on ramelteon-induced intracellular Ca2+ increase in human MT2 receptor expressing cells (Example 5); format: cell-based; settings: for intracellular Ca^2+ concentration increasing action: action by 10^-6 M ramelteon = 100%
T2 construct: expressed in transfected cells; vector pCDNA3.1/Zeo; co-transfected with a Gq/i chimeric G protein expression vector
T2 sequence (P49286 1-362): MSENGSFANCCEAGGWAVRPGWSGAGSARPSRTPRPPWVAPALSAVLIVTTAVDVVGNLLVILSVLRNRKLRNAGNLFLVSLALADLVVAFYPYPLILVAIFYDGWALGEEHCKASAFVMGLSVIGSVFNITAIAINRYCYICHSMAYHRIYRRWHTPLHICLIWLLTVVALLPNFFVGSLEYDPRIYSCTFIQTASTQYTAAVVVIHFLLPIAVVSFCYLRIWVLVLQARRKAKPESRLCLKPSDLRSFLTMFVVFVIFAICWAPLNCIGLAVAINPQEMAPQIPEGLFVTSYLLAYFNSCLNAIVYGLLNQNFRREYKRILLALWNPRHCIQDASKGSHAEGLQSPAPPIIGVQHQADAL
Procedure: as §2

[9] = tested on: isolated urethra; test: Effect of luzindole on urethra contracting action of ramelteon in isolated urethra (Example 5); design: species or system rat; settings: for isolated urethra contracting action: contraction by 1 μM ramelteon at first time = 100%
Procedure: The urethra was isolated from an SD female rat having a body weight of 100 g to 500 g. The isolated urethra was incised vertically and then made into strip-shaped specimens having a width of about 3 mm. The specimens were suspended in a 10 mL tissue bus filled with a Krebs-Henseleit solution (pH 7.4) in the circular muscle direction or the longitudinal muscle direction. […] The resting tension was set to 0.5 g and the isometric contraction was recorded. After the resting tension was stabilized, a 10 μM phenylephrine solution was added thereto to cause contraction. After washing and stabilizing, the compound (ramelteon) was cumulatively added to a final concentration of 10^−5 M to 10^−12 M and the contraction response was measured. After washing and stabilizing, luzindole was added, after 20 minutes, ramelteon was cumulatively added again, and the contraction response was measured.

[10] = biological target: T1, human MT1 receptor; test: Intracellular Ca2+ concentration by FLIPR in human MT1 receptor expressing cells (Example 2); format: cell-based; settings: human MT1 receptor expressing HEK293 cells, 10^-5 M to 10^-12 M, FIGS. 2 and 4
Procedure: (§3) The expression vectors for human MT1 and MT2 receptors were introduced into HEK293 cells, together with a Gq/i chimeric G protein expression vector, respectively. The incorporation was carried out in accordance with instructions, using a Lipofectoamine (registered trademark) 2000 Reagent (Invitrogen Inc.). Using Zeocin and hygromycin as a resistant agent, the cells were cultured for 15 days in the presence of 0.02 mg/mL and 0.05 mg/mL of the agents, respectively, thereby acquiring a drug-resistant clone.
(§4) The respective stably expressing cells were dispensed into 96 wells in a poly-D-lysine-coated plate (Falcon) the day before the experiment to give 40,000 cells/well, and cultured in a DMEM (Invitrogen Inc.) medium containing 10% FBS at 37° C. and 5% CO2 overnight. The medium was replaced with a loading buffer (a washing solution containing 4 μM Fluo-4AM (Dojindo Co.) (Hank's balanced salt solution (HBSS), 20 mM HEPES-NaOH, 2.5 mM probenecid)) and cultured at 37° C. and 5% CO2 for 1 hour.

[11] = biological target: T2, human MT2 receptor; test: Intracellular Ca2+ concentration by FLIPR in human MT2 receptor expressing cells (Example 2); format: cell-based; settings: human MT2 receptor expressing HEK293 cells, 10^-5 M to 10^-12 M, FIGS. 3 and 5
Procedure: as §3, §4

[12] = intravenous, anesthetized SD female rat, FIGS. 10 to 14
[13] = final concentration of ramelteon 10^-5 M

T1 sequence (P48039 whole entry): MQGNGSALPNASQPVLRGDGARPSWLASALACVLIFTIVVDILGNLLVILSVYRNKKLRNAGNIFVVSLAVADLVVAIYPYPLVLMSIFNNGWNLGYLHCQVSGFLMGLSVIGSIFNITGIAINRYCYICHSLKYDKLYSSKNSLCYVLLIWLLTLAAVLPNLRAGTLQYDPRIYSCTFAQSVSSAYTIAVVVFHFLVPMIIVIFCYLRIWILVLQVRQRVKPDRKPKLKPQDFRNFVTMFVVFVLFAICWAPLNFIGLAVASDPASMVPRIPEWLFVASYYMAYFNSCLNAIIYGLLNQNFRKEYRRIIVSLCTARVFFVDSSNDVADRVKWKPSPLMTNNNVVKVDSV

COc1ccc2[nH]cc(CCNC(C)=O)c2c1 [melatonin]
contraction action on the isolated bladder [1]: did not exhibit a contraction action
effect on blood pressure (mean blood pressure) [2]: did not increase the blood pressure
urethra contracting action [3]: contracted the isolated urethra
urethral pressure increasing action [4]: increased the urethral pressure
urethral pressure increasing action [5, 12]: increased the urethral pressure
contraction action on the isolated uterus [6]: did not exhibit a contraction action

CC(=O)NCCc1c(Cc2ccccc2)[nH]c2ccccc12 [luzindole, N-[2-[2-(phenylmethyl)-1H-indol-3-yl]ethyl]acetamide]
inhibition of the increase in intracellular Ca^2+ concentration by ramelteon ([7]; MT1 receptor expressing cells, FIG. 15): inhibited
intracellular Ca^2+ concentration increasing action ([7]; MT1 receptor expressing cells, ramelteon 10^-5 M with 10^-5 M luzindole): 94%
intracellular Ca^2+ concentration increasing action ([7]; MT1 receptor expressing cells, ramelteon 10^-5 M with 10^-6 M luzindole): 97%
intracellular Ca^2+ concentration increasing action ([7]; MT1 receptor expressing cells, ramelteon 10^-5 M with 10^-7 M luzindole): 100%
inhibiting action on the MT1 receptor [7, 13]: substantially did not exhibit an inhibiting action
inhibition of the increase in intracellular Ca^2+ concentration by ramelteon ([8]; MT2 receptor expressing cells, FIG. 16): inhibited
intracellular Ca^2+ concentration increasing action ([8]; MT2 receptor expressing cells, ramelteon 10^-5 M with 10^-5 M luzindole): 52%
intracellular Ca^2+ concentration increasing action ([8]; MT2 receptor expressing cells, ramelteon 10^-5 M with 10^-6 M luzindole): 60%
intracellular Ca^2+ concentration increasing action ([8]; MT2 receptor expressing cells, ramelteon 10^-5 M with 10^-7 M luzindole): 62%
inhibiting action, MT2 versus MT1 receptor expressing cells ([8]; comparison of MT2 and MT1 receptor expressing cells): stronger in the MT2 receptor expressing cells than in the MT1 receptor expressing cells
inhibiting action on isolated urethra contracting action [9, 13]: substantially did not exhibit an inhibiting action
isolated urethra contracting action ([9]; ramelteon 10^-5 M with 10^-5 M luzindole): 78%
isolated urethra contracting action ([9]; ramelteon 10^-5 M with 10^-6 M luzindole): 94%
isolated urethra contracting action ([9]; ramelteon 10^-5 M with 10^-7 M luzindole): 101%
inhibition of isolated urethra contracting action by ramelteon ([9]; treatment with luzindole 10^-7 M to 10^-5 M, FIG. 17): inhibited in a concentration-dependent manner

COc1ccc2cccc(CCNC(C)=O)c2c1 [agomelatine, N-[2-(7-methoxynaphth-1-yl)ethyl]acetamide]
intracellular Ca^2+ concentration (melatonin receptor activating action) [10]: increased
urethra contracting action [3]: contracted the isolated urethra
urethral pressure increasing action [5, 12]: increased the urethral pressure
intracellular Ca^2+ concentration (melatonin receptor activating action) [11]: increased

CCC(=O)NC[C@@H]1C[C@H]1c1cccc2c1CCO2 [tasimelteon, (−)-(trans)-N-{[2-(2,3-dihydrobenzofuran-4-yl)cyclopropan-l-yl]methyl}propanamide]
intracellular Ca^2+ concentration (melatonin receptor activating action) [10]: increased
urethra contracting action [3]: contracted the isolated urethra
urethral pressure increasing action [5, 12]: increased the urethral pressure
intracellular Ca^2+ concentration (melatonin receptor activating action) [11]: increased

COc1ccc(OC)c(C(O)CN)c1 (stereo not shown) [ST-1059]
urethral pressure increasing action ([5]; rat, dose 0.01 mg/kg): 4.9±1.1 mmHg

COc1cc2c([C@@H](C)CNC(C)=O)c[nH]c2cc1Cl [TIK-301, N-[(2R)-2-(6-chloro-5-methoxy-1H-indol-3-yl)propyl]acetamide]
intracellular Ca^2+ concentration (melatonin receptor activating action) [10]: increased
urethra contracting action [3]: contracted the isolated urethra
urethral pressure increasing action [5, 12]: increased the urethral pressure
intracellular Ca^2+ concentration (melatonin receptor activating action) [11]: increased
